PubChem BioAssay AID624029 (Broad Institute, 2012)
Activity calls are given as the source filed them.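 The calls were made as follows: active = compounds lowering HDL uptake fluorescence with a fitted half-maximal potency at most twice the top tested dose; inconclusive = flat partial inhibition of 30 to 70% or an unreliable fit; inactive = the rest.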

Target: Scavenger receptor class B member 1 (Mus musculus) (UniProt Q61009)
Experiment: inhibitors of SR-BI-mediated HDL uptake, dose response, cell-based, ldlA[mSR-BI] CHO, DiI fluorescence, dry powder, set 10 (AID 624029)
Conditions: 3 h; for activity change, negative = inhibition: at 35 µM (top of the series)

Sequence of Scavenger receptor class B member 1 (Mus musculus) (Q61009 whole entry, looked up): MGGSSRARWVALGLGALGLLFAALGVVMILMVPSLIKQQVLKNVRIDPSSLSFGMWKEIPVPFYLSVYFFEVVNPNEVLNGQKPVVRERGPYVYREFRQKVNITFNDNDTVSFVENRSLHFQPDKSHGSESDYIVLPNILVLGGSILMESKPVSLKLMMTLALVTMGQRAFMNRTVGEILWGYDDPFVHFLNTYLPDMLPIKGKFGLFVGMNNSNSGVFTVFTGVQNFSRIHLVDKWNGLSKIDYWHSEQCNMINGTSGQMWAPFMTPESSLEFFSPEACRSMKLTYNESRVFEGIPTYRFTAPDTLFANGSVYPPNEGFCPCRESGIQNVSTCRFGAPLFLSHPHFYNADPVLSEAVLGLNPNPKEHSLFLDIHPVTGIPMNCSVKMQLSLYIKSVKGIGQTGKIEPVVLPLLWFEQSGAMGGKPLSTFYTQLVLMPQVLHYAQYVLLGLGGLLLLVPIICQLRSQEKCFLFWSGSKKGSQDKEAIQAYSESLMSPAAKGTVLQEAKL

| activity change, negative = inhibition | AC50 [nM] | Structure (SMILES) |
| --- | --- | --- |
| inactive | – | C=CCOC(=O)N(C)C[C@@H]1Oc2ccc(NC(=O)OCC3c4ccccc4-c4ccccc43)cc2C(=O)N([C@H](C)CO)C[C@H]1C |
| – | 293 | CC(C)NC(=O)Nc1ccc2c(c1)C(=O)N([C@H](C)CO)C[C@@H](C)[C@H](CN(C)S(=O)(=O)c1ccc(Cl)cc1)O2 |
| inactive | – | CC(C)NC(=O)Nc1ccc2c(c1)CC(=O)N([C@H](C)CO)C[C@@H](C)[C@H](CN(C)S(=O)(=O)c1ccc(Cl)cc1)O2 |
| inactive | – | C[C@@H]1CN([C@H](C)CO)C(=O)c2cc(NC(=O)Nc3ccc(F)cc3)ccc2O[C@H]1CN(C)S(=O)(=O)c1ccc(Cl)cc1 |
| inactive | – | CC(C)NC(=O)Nc1ccc2c(c1)C(=O)N([C@H](C)CO[Si](C)(C)C(C)(C)C)C[C@@H](C)[C@H](CN(C)S(=O)(=O)c1ccc(Cl)cc1)O2 |
| inactive | – | C=CCOC(=O)N(C)C[C@@H]1Oc2ccc(NC(=O)NC(C)C)cc2C(=O)N([C@H](C)CO[Si](C)(C)C(C)(C)C)C[C@H]1C |
| inactive | – | CNC[C@@H]1Oc2ccc(NC(=O)NC(C)C)cc2C(=O)N([C@H](C)CO[Si](C)(C)C(C)(C)C)C[C@H]1C |
| inactive | – | CC(C)NC(=O)Nc1cccc2c1O[C@@H](CN(C)S(=O)(=O)c1ccc(Cl)cc1)[C@H](C)CN([C@H](C)CO)C2=O |
